From US9510598B2, “Nitrogen-containing heterocyclic compounds for plant disease control” (BAYER CROPSCIENCE AG, priority 2012, dated 2016) come the findings set out here.

The structures appear in SMILES notation. Values joined by “and” are separate entries in the source; they are usually repeats but may differ in a detail not shown here. Identical values can stand only once.

A word on the Log P: it is a log measure of how a compound divides between an organic and an aqueous phase. Lower therefore signals lower lipophilicity.

For the first series the following is noted: Table 2, formula (II); method [a]: pH 2.7, 0.1% formic acid in water / acetonitrile gradient.
Procedure: Measurement of log P values was performed according EEC directive 79/831 Annex V.A8 by HPLC (High Performance Liquid Chromatography) on reversed phase columns with the following methods: ^[a]
In the case of `C#Cc1cnc2ccc(C3=NOC(C)(C(=O)O)C3)cc2c1` (racemic) [II-10], the lipophilicity (Log P) was 1.71[a].

Regarding `O=C(O)C1(CBr)CC(c2ccc3ncc(Br)cc3c2)=NO1` (racemic) [II-11], the “Log P” value was 2.19[a].

With `O=C(O)C1(c2ccccc2)CC(c2ccc3ncc(Br)cc3c2)=NO1` (racemic) [II-12], the “Log P” value was 2.76[a].

For `O=C(O)C1(C(F)(F)F)CC(c2cc3cc(Br)cnc3c(F)c2F)=NO1` (racemic) [II-13], the “Log P” value was 2.01[a].

For the compound `COC(=O)C1(C(F)(F)F)CC(c2ccc3ncc(Br)cc3c2)=NO1` (racemic) [II-14], the log partition coefficient (Log P) was 3.4[a].

`COC(=O)C1(CCl)CC(c2ccc3ncc(Br)cc3c2)=NO1` (racemic) [II-16]: the log partition coefficient (Log P) is 3.03[a].

`COC(=O)C1(c2ccccc2)CC(c2ccc3ncc(Br)cc3c2)=NO1` (racemic) [II-17]: the log partition coefficient (Log P) is 2.69[a].

Turning to `COC(=O)C1(C2CC2)CC(c2ccc3ncc(Br)cc3c2)=NO1` (racemic) [II-18], the log partition coefficient (Log P) is 3.27[a].

For the compound `CCOC(=O)C1(C)CC(c2ccc3ncccc3c2)=NO1` (racemic) [II-20], the “Log P” value was 1.6[a].

Turning to `COC(=O)C1(C(F)(F)F)CC(c2cc3cc(Br)cnc3c(F)c2F)=NO1` (racemic) [II-22], the lipophilicity (Log P) is 3.72[a].

For `COC(=O)C1(OC)CC(c2cc3cc(Br)cnc3c(F)c2F)=NO1` (racemic) [II-24], the log partition coefficient (Log P) is 3.04[a].

For `COC(=O)C1(C)CC(c2cc(C)c3ncc(Br)cc3c2)=NO1` (stereo not shown) [II80], the “Log P” value was 3.55[a].

Turning to `COC(=O)C1(OC)CC(c2ccc3ncc(Br)cc3c2)=NO1` (stereo not shown) [II-25], the lipophilicity (Log P) was 3.29[a].

Consider `COC(=O)C1(C)CC(c2ccc3ncc(C#C[Si](C)(C)C)cc3c2)=NO1` (stereo not shown) [II-26], for which the log partition coefficient (Log P) was 4.31[a].

For `COC(=O)C1(C)CC(c2cc3cc(Br)cnc3c(F)c2F)=NO1` (stereo not shown) [II-27], the “Log P” value is 3.06[a].

Regarding `COC(=O)C1(C)CC(c2cc3cccnc3c(F)c2F)=NO1` (stereo not shown) [II-29], the “Log P” value was 2.11[a].

For `COC(=O)C1(C)CC(c2ccc3ncc(I)cc3c2)=NO1` (stereo not shown) [II-30], the “Log P” value was 2.71[a].

For `COC(=O)C12CCCC1C(c1ccc3ncc(Br)cc3c1)=NO2` (stereo not shown) [II-31], the log partition coefficient (Log P) was 3.23[a].

Regarding `COC(=O)C12OCCCC1C(c1ccc3ncc(Br)cc3c1)=NO2` (stereo not shown) [II-32], the “Log P” value is 2.80[a].

For the compound `COC(=O)C1(C)CC(c2ccc3ncc(Br)cc3c2)=NO1` (stereo not shown) [II-33], the log partition coefficient (Log P) is 2.69[a].

In the case of `COC(=O)C1(C)CC(c2cc3cc(Br)cnc3cc2F)=NO1` (stereo not shown) [II-34], the “Log P” value was 2.94[a].

On to `C#Cc1cnc2ccc(C3=NOC(C)(C(=O)OC)C3)cc2c1` (stereo not shown) [II-35], for which the log partition coefficient (Log P) is 2.35[a].

With `O=C(O)C1(CF)CC(c2ccc3ncc(Br)cc3c2)=NO1` (stereo not shown) [II-36], the “Log P” value was 1.94[a].

As for `O=C(O)C1(C2CC2)CC(c2ccc3ncc(Br)cc3c2)=NO1` (stereo not shown) [II-37], the “Log P” value is 2.43[a].

As for `COc1nc2ccc(C3=NOC(C)(C(=O)O)C3)cc2cc1Br` (stereo not shown) [II-38], the lipophilicity (Log P) was 2.64[a].

Consider `COC(=O)C1(C(C)=NO)CC(c2ccc3ncc(Br)cc3c2)=NO1` (stereo not shown) [II-39], for which the “Log P” value was 2.58[a].

As to `COC(=O)C1(C(C)=O)CC(c2ccc3ncc(Br)cc3c2)=NO1` (stereo not shown) [II-40], the “Log P” value is 2.94[a].

Regarding `COC(=O)C1ON=C(c2ccc3ncc(Br)cc3c2)C12CC2` (stereo not shown) [II-41], the “Log P” value was 2.71[a].

Consider `CCOC(=O)C1(C)ON=C(c2ccc3ncc(Br)cc3c2)C1CC` (stereo not shown) [II-42], for which the “Log P” value was 3.74[a].

Consider `CC1(C(=O)O)CC(c2ccc3nc(Cl)c(Br)cc3c2)=NO1` (stereo not shown) [II-43], for which the lipophilicity (Log P) was 2.57[a].

Consider `COC(=O)C1(C)CC(c2ccc3nc(Cl)c(Br)cc3c2)=NO1` (stereo not shown) [II-44], for which the “Log P” value is 3.74[a].

With `COC(=O)C1(C)CC(c2ccc3nc(O)c(Br)cc3c2)=NO1` (stereo not shown) [II-45], the “Log P” value is 1.74[a].

In the case of `CC1(C(=O)O)CC(c2ccc3nc(C#N)c(Br)cc3c2)=NO1` (stereo not shown) [II-46], the “Log P” value was 2.23[a].

With `COC(=O)C1(C)CC(c2ccc3nc(C#N)c(Br)cc3c2)=NO1` (stereo not shown) [II-47], the “Log P” value was 3.02[a].

As to `CCOC(=O)C1(C)ON=C(c2ccc3ncc(Br)cc3c2)C1OCC` (stereo not shown) [II-49], the “Log P” value was 3.99[a].

In the case of `COC(=O)CC1(C(=O)O)CC(c2ccc3ncc(Br)cc3c2)=NO1` (stereo not shown) [II-50], the lipophilicity (Log P) is 1.98[a].

Turning to `COC(=O)C12ON=C(c3ccc4ncc(Br)cc4c3)C1C2C` (stereo not shown) [II-51], the “Log P” value was 3.09[a].

As for `COC(=O)C1(CO)CC(c2ccc3ncc(Br)cc3c2)=NO1` (stereo not shown) [II-52], the log partition coefficient (Log P) was 1.99[a].

Take `C[Si](C)(C)CC1(C(=O)O)CC(c2ccc3ncc(Br)cc3c2)=NO1` (stereo not shown) [II-54]: the log partition coefficient (Log P) was 3.42[a].

Take `C#Cc1cc2cc(C3=NOC(C)(C(=O)O)C3)ccc2nc1Cl` (stereo not shown) [II-55]: the “Log P” value is 2.24[a].

As to `C#Cc1cc2cc(C3=NOC(C)(C(=O)OC)C3)ccc2nc1Cl` (stereo not shown) [II-56], the “Log P” value was 3.01[a].

In the case of `CCOC(=O)C1(OCC)CC(c2ccc3ncc(Br)cc3c2)=NO1` (stereo not shown) [II-57], the lipophilicity (Log P) was 2.53[a].

For the compound `CCOC(=O)C1(C[Si](C)(C)C)CC(c2ccc3ncc(Br)cc3c2)=NO1` (stereo not shown) [II-58], the “Log P” value is 3.80[a].

In the case of `CC(C)OC(=O)C1(C)CC(c2ccc3ncc(Br)cc3c2)=NO1` (stereo not shown) [II-59], the lipophilicity (Log P) is 3.53[a].

Turning to `COC(=O)C1(C)CC(c2ccc3nc(Cl)c(I)cc3c2)=NO1` (stereo not shown) [II-60], the “Log P” value is 3.34 and 3.62.

Consider `CCOC(=O)C1(CF)CC(c2ccc3ncc(Br)cc3c2)=NO1` (stereo not shown) [II-62], for which the lipophilicity (Log P) is 3.13[a].

`CCOC(=O)C1(CC)CC(c2ccc3ncc(Br)cc3c2)=NO1` (stereo not shown) [II-63]: the “Log P” value was 3.53[a].

With `CCC1(C(=O)O)CC(c2ccc3ncc(Br)cc3c2)=NO1` (stereo not shown) [II-64], the log partition coefficient (Log P) was 2.30[a].

On to `O=C(O)C1(CC2CC2)CC(c2ccc3ncc(Br)cc3c2)=NO1` (stereo not shown) [II-66], for which the log partition coefficient (Log P) was 2.70[a].

For `CCOC(=O)C1(CC)CC(c2ccc3ncc(C#C[Si](C)(C)C)cc3c2)=NO1` (stereo not shown) [II-67], the lipophilicity (Log P) was 5.19[a].

As for `COC(=O)C1(C)CC(c2ccc3nc(C#N)c(I)cc3c2)=NO1` (stereo not shown) [II-68], the lipophilicity (Log P) was 3.02[a].

In the case of `C#Cc1cnc2ccc(C3=NOC(CC)(C(=O)O)C3)cc2c1` (stereo not shown) [II-69], the lipophilicity (Log P) is 2.05[a].

For `C=C(Cl)C1(C(=O)OC)CC(c2ccc3ncc(Br)cc3c2)=NO1` (stereo not shown) [II-70], the “Log P” value is 3.68[a].

For the compound `C#Cc1cnc2ccc(C3=NOC(OC)(C(=O)OCCCC(C)NC(C)CCCOC(=O)C4(OC)CC(c5ccc6ncc(C#C)cc6c5)=NO4)C3)cc2c1` (stereo not shown) [II-71], the lipophilicity (Log P) was 2.20[a].

Regarding `C=C(C)C1(C(=O)OC)CC(c2ccc3ncc(Br)cc3c2)=NO1` (stereo not shown) [II-72], the “Log P” value is 3.44[a].

`C=C(C)C1(C(=O)O)CC(c2ccc3ncc(Br)cc3c2)=NO1` (stereo not shown) [II-73]: the “Log P” value was 2.52[a].

Take `C#Cc1cnc2c(C)cc(C3=NOC(C)(C(=O)OC)C3)cc2c1` (stereo not shown) [II-74]: the “Log P” value was 3.07[a].

Regarding `C#Cc1cnc2c(Cl)cc(C3=NOC(C)(C(=O)OC)C3)cc2c1` (stereo not shown) [II-75], the “Log P” value was 2.92[a].

Consider `COC(=O)C1(C)CC(c2cc(Cl)c3ncc(Br)cc3c2)=NO1` (stereo not shown) [II-76], for which the lipophilicity (Log P) is 3.29[a].

With `C#Cc1cnc2c(Cl)cc(C3=NOC(C)(C(=O)O)C3)cc2c1` (stereo not shown) [II-78], the “Log P” value is 2.20[a].

`CC1(C(=O)O)CC(c2cc(Cl)c3ncc(Br)cc3c2)=NO1` (stereo not shown) [II-79]: the “Log P” value is 2.45[a].

With `C#Cc1cnc2c(C)cc(C3=NOC(C)(C(=O)O)C3)cc2c1` (stereo not shown) [II-81], the “Log P” value is 2.30[a].

With `CC1(C(=O)O)CC(c2ccc3nc(C#N)c(I)cc3c2)=NO1` (stereo not shown) [II-82], the log partition coefficient (Log P) is 2.24[a].

Take `CC1(C(=O)O)CC(c2ccc3nc(Cl)c(I)cc3c2)=NO1` (stereo not shown) [II-83]: the “Log P” value is 2.59[a].

Consider `COC(=O)C1(SC)CC(c2ccc3ncc(Br)cc3c2)=NO1` (stereo not shown) [II-84], for which the lipophilicity (Log P) is 3.05[a].

`Cc1cc(C2=NOC(C)(C(=O)O)C2)cc2cc(Br)cnc12` (stereo not shown) [II-85]: the lipophilicity (Log P) was 2.64[a].

In the case of `C#Cc1cnc2c(C)cc(C3=NOC(OC)(C(=O)OCC)C3)cc2c1` (stereo not shown) [II-86], the “Log P” value is 3.46[a].

Regarding `CCOC(=O)C1(OC)CC(c2cc(Cl)c3ncc(Br)cc3c2)=NO1` (stereo not shown) [II-87], the “Log P” value is 3.69[a].

`CSC1(C(=O)O)CC(c2ccc3ncc(Br)cc3c2)=NO1` (stereo not shown) [II-88]: the “Log P” value is 2.01[a].

On to `COC1(C(=O)O)CC(c2cc(Cl)c3ncc(Br)cc3c2)=NO1` (stereo not shown) [II-89], for which the “Log P” value was 2.19[a].

Consider `C#Cc1cnc2c(Cl)cc(C3=NOC(OC)(C(=O)O)C3)cc2c1` (stereo not shown) [II-90], for which the log partition coefficient (Log P) was 1.95[a].

As for `CCOC(=O)C1(OC)CC(c2cc(C)c3ncc(Br)cc3c2)=NO1` (stereo not shown) [II-91], the “Log P” value was 3.99[a].

As for `COC1(C(=O)O)CC(c2cc(C)c3ncc(Br)cc3c2)=NO1` (stereo not shown) [II-92], the “Log P” value is 2.42[a].

For `C#Cc1cnc2c(C)cc(C3=NOC(OC)(C(=O)O)C3)cc2c1` (stereo not shown) [II-93], the log partition coefficient (Log P) was 2.07[a].

Turning to `N#CC1(C(=O)O)CC(c2ccc3ncc(Br)cc3c2)=NO1` (stereo not shown) [II-94], the “Log P” value was 1.42[a].

For `COC(=O)C1(C)CC(c2ccc3ncc(Br)c(Cl)c3c2)=NO1` (stereo not shown) [II-95], the “Log P” value is 3.29[a].

Take `CC1(C(=O)O)CC(c2ccc3ncc(Br)c(Cl)c3c2)=NO1` (stereo not shown) [II-96]: the “Log P” value was 2.34[a].

The same series, now with this note: Table 3, formula (V); method [a]: pH 2.7, 0.1% formic acid in water / acetonitrile gradient.
Take `ON=Cc1cc2cccnc2c(F)c1F` [V-01]: the lipophilicity (Log P) is 1.48[a].

`ON=C(Cl)c1cc2cccnc2c(F)c1F` [V-02]: the log partition coefficient (Log P) is 2.04[a].

With `ON=C(Cl)c1cc2cc(Br)cnc2c(F)c1F` [V-03], the lipophilicity (Log P) was 2.92[a].

`ON=Cc1cc2cc(Br)cnc2cc1F` [V-05]: the lipophilicity (Log P) is 2.21[a].

For the compound `ON=C(Cl)c1cc2cc(Br)cnc2cc1F` [V-06], the log partition coefficient (Log P) is 2.63[a].

Consider `ON=Cc1ccc2ncc(I)cc2c1` [V-07], for which the “Log P” value was 1.98[a].

As to `ON=C(Cl)c1ccc2ncc(I)cc2c1` [V-08], the “Log P” value was 2.63[a].

For `ON=Cc1ccc2ncc(Br)cc2c1` [V-09], the “Log P” value was 1.88[a].
